Laboratory results reported in patent publication US20060003016A1, “Therapeutic method for endolymphatic hydrops associated diseases” (priority 2004, published 2006).
Structures can show the parent of a compound that is named as a salt.

Columns and labels:
[1] = tested on: patients with Meniere's disease and endolymphatic hydrops associated diseases; assay: Clinical course of vertigo, aural fullness, tinnitus and hearing in clinical cases; type: in vivo, patient
Description: Therapeutic method of our invention is always performed after general examinations and standard laboratory examinations, such as blood pressure, plasma electrolytes, and urine osmolality. After consideration of body weight, age, sex, and life style, we directed the patients to take adequate water (see below) every day in combination with short-term application with isosorbite®. During the initial stage of the water intake method, recommended volume of water intake for adult male, weighing 60 kg, is calculated as 1.8-2.1 l per day according to the following formula (F 1). […] They seem to be nervous and live under the very strong psychological pressure.
The present invention is explained in detail by mentioning clinical cases.

rats = details: arginine-vasopressin induced rats; cited from earlier work
guinea pig = details: after administration of AVP; cited from earlier work
[2] = case 3, isosorbide 63 g t.d.s. and difenidol hydrochloride 75 mg t.d.s. together for 6 days, July 28, 2000
[3] = case 3, isosorbide 63 g t.d.s. and difenidol hydrochloride 75 mg t.d.s. together for 14 days, March 2000

OC(CCCN1CCCCC1)(c1ccccc1)c1ccccc1 [difenidol hydrochloride, reference compound]
left hearing [1, 2]: improved to normal range
left hearing [1, 3]: improved

NC(=O)CC[C@@H]1NC(=O)[C@H](Cc2ccccc2)NC(=O)[C@H](Cc2ccc(O)cc2)NC(=O)[C@@H](N)CSSC[C@@H](C(=O)N2CCC[C@H]2C(=O)N[C@@H](CCCN=C(N)N)C(=O)NCC(N)=O)NC(=O)[C@H](CC(N)=O)NC1=O [AVP, arginine vasopressin]
ABR (auditory brainstem evoked response) threshold (rats): increase in ABR (auditory brainstem evoked response) threshold
endolymphatic hydrops (guinea pig): endolymphatic hydrops was produced

CCCCC[C@H](O)/C=C/[C@H]1[C@H](O)CC(=O)[C@@H]1CCCCCCC(=O)O [PGE1, reference compound]
low frequency sensorineural hearing loss of the left ear ([1]; case 5, steroid, VB12 and vasodilator (prostaglandin:PGE1) together): no improvement

O[C@@H]1CO[C@H]2[C@@H]1OC[C@@H]2O [isosorbide, reference compound]
time until rotatory vertigo was improved ([1]; case 1, attack of Jan. 24, 2003, isosorbide 63 g t.d.s. with water intake 2 lit./day continued): ≤ 3 h
right ear hearing ([1]; case 1, isosorbide 63 g t.d.s. for one week, reexamination Dec. 6, 2002): improved to the normal level
left hearing [1, 2]: improved to normal range
left hearing [1, 3]: improved
right hearing ([1]; case 4, isosorbide 63 g t.d.s. orally for 2 weeks): no improvement
